Results taken from US5948791A, “Quinoline derivatives for treating malaria” (Hoffmann-La Roche Inc., priority 1995, dated 1999).
≈ marks a conversion by molar mass, not a printed value. Where a name gives a salt, the structure may show the parent alone. Read-outs that look alike come from different tables or passages of the source.

Assays:
[1] = tested on: Plasmodium falciparum strain NF54; test: Growth inhibition of Plasmodium falciparum NF54 (chloroquine-sensitive) in vitro, [G-3H]-hypoxanthin incorporation; format: cell-based; details: chloroquine-sensitive strain NF54, 72 h, read-out: IC50 for P. falciparum NF54
Description: (§1) The ratio of the growth inhibition of a strain which is especially resistant to chloroquine and of a strain which is sensitive to chloroquine gives as the "resistance index" a measurement for the absence of a cross-resistance with chloroquine. Since, for all novel compounds the resistance index lies between 0.7 and 2.5, they inhibit the growth of sensitive as well as resistant strains of the malaria pathogen equally effectively. They are accordingly also suitable for the prophylaxis of a malaria disease and also for the treatment of a malaria disease even when chloroquine is ineffective. The good activity against malaria pathogens is also shown in animal experiments. The effective doses measured after oral and subcutaneous administration to mice infected with malaria pathogens are shown in Table 2 hereinafter.
(§2) Test method for the determination of the activity against Plasmodium falciparum in vitro
(§3) The preparations are tested on intraerythrocytary stages of Plasmodium falciparum from asynchronous cultures according to the method of Desjardin et al. (Desjardins, R. E. et al: Quantitative assessment of antimalarial activity in vitro by a semiautomated microdilution technique. Antimicrob. Agents Chemother. 16, 710-718, (1979)).
(§4) The culture medium consists of RPMI 1640 with the addition of 25 mM HEPES, 25 mM NaHCO3, 100 μg/ml neomycin and […] (A^+). Human-A^+ erythrocytes are used as the Plasmodium falciparum host cells. The parasites are maintained at 37° C. in an atmosphere of 3% O2, 4% CO2, 93% N2 and 95% relative humidity.
(§5) In order to determine the activity, the preparations are dissolved in DMSO, pre-diluted in the culture medium to a suitable starting concentration and subsequently titrated-out on to microtitre plates in the 2nd stage over 6-7 steps. After the addition of the parasite culture (0.7% parasitemia in 2.5% erythrocyte suspension) the test plates are incubated under the conditions given above for 72 h. The parasite growth in the different preparation concentrations is determined using [G-^3 H]-hypoxanthin incorporation compared to untreated control cultures on the same test plates. The 50% growth inhibition (IC50) is calculated according to logit regression analysis from the resulting dosage-activity curve.
(§6) The preparations are tested on at least one chloroquine-resistant and one chloroquine-sensitive Plasmodium falciparum strain. Additional sensitive and resistant strains are included for further characterization.

[2] = tested on: Plasmodium falciparum K1; test: Growth inhibition of Plasmodium falciparum K1 (chloroquine-resistant) in vitro, [G-3H]-hypoxanthin incorporation; format: cell-based, Plasmodium falciparum (strain K1); details: for IC50: Plasmodium falciparum, K1, 72 h, read-out: IC50 for P. falciparum K1; for Resistance index: ratio of the IC50 for K1 and the IC50 for NF54
Description: as §1, §2, §3, §4, §5, §6

[3] = tested on: Plasmodium berghei; test: animal or person; format: in vivo, Plasmodium berghei (strain ANKA) in mice; details: Plasmodium berghei, mice, blood smears 48 h after treatment
Protocol: Test method for the determination of the activity against Plasmodium berghei in vivo
The preparations are tested on mice infected with malaria pathogens (Plasmodium berghei). Male albino mice (IBM:MORO(SPF), FUELLINSDORF) weighing about 25 g are used as the test animals. They are kept in climatized rooms at 21-22° C. in groups of 5 animals per cage. They receive ad libitum a diet feed with a low PABA content (NAFAG FUTTER " No. 9009 PAB-45, PABA content 45 mg/kg) and drinking water. On the first day of the test (D0) the test animals are infected with Plasmodium berghei (strain ANKA). For this there is used heparinized blood of a donor mouse with about 30% parasitemia, which is diluted with physiological saline such that it contains 10^8 parasitized erythrocytes per ml. 0.2 ml of this suspension is injected intravenously (i.v.) into the mice to be treated and into the control mice.
The substances to be tested are dissolved or suspended in distilled water or in a mixture of 7% Tween 80, 3% alcohol (96%) and water. Usually, 0.25 ml of this solution or suspension is administered once subcutaneously and perorally to groups of 5 test animals. Treatment is effected 24 hours after the infection. 10 control animals are treated in the same manner with solvent or suspension medium per test.
All substances are tested in a first test in a single dosage of 10 mg/kg. Only those substances which in this test (10 mg/kg) have shown a parasitaemia reduction of 90% are used for the titration. Suitable dilutions of the test substance can be used to obtain an accurate titration of the activity.
48 hours after the treatment (D+3) blood smears are prepared from all animals using blood from tail veins and are stained with giemsa. […] The difference in the average values of the infection rates of control group (100%) and treated groups is calculated and expressed as a percentage reduction (GI%). The ED50 or ED90 is determined mathematically by means of the JMP programme (nonlinear fit). The ED50 (ED90) in mg/kg is that dose which after single administration reduces the average erythrocyte infection rate by 50% (90%) in comparison to the control group.

[4] = po, single peroral dose of 10 mg/kg, read-out: Growth inhibition in % after po administration (GI%, percentage reduction of the parasitemia)
[5] = sc, single subcutaneous dose of 10 mg/kg, read-out: Growth inhibition in % after sc administration (GI%, percentage reduction of the parasitemia)

SMILES | IC50 [1] [µg/mL] | IC50 [2] [µg/mL] | Resistance index [2] | inhibition in vivo at 10 mg/kg [3, 4] [%] | inhibition in vivo at 10 mg/kg [3, 5] [%]
Cl.Cl.Clc1ccc(CN[C@@H]2CC[C@H](Nc3ccnc4cc(Cl)ccc34)C2)cc1 (relative stereo) [Example 68, cis-N1-(7-Chloro-quinolin-4-yl)-N3-(4-chloro-benzyl)-cyclopentane-1,3-diamine dihydrochloride] | 0.0059 | 0.0146 | 2.5 | 99.9 | 99.6
CCN(CC)Cc1cc(Nc2ccnc3cc(Cl)ccc23)ccc1O [Amodiaquine, reference compound] | 0.0025 (≈ 7.03 nM) | 0.0035 (≈ 9.84 nM) |  |  | 
C[C@H](CNc1ccnc2cc(Cl)ccc12)NCc1ccc(N(C)C)cc1.Cl.Cl.Cl [Example 1, (2R)-N1-(7-Chloro-quinolin-4-yl)-N2-(4-dimethylamino-benzyl)-propane-1,2-diamine trihydrochloride] | 0.0126 | 0.0175 | 1.4 |  | 
C[C@@H](CNCc1ccc(N(C)C)cc1)Nc1ccnc2cc(Cl)ccc12.Cl.Cl.Cl [Example 2, (2S)-N2-(7-Chloro-quinolin-4-yl)-N1-(4-dimethylamino-benzyl)-propane-1,2-diamine trihydrochloride] | 0.0071 | 0.0148 | 2.1 |  | 
CC(C)(CNc1ccnc2cc(Cl)ccc12)NCc1cccc(Cl)c1Cl.Cl.Cl [Example 26, N1-(7-Chloro-quinolin-4-yl)-N2-(2,3-dichloro-benzyl)-2-methyl-propane-1,2-diamine dihydrochloride] | 0.0263 | 0.0373 | 1.4 |  | 
CC(C)(CNc1ccnc2cc(Cl)ccc12)NCc1cccc(O)c1.Cl.Cl [Example 32, N1-(7-Chloro-quinolin-4-yl)-N2-(3-hydroxy-benzyl)-2-methyl-propane-1,2-diamine dihydrochloride] | 0.0076 | 0.0147 | 1.9 |  | 
COc1ccccc1CNC(C)(C)CNc1ccnc2cc(Cl)ccc12.Cl.Cl [Example 34, N1-(7-Chloro-quinolin-4-yl)-N2-(2-methoxy-benzyl)-2-methyl-propane-1,2-diamine dihydrochloride] | 0.0072 | 0.015 | 2.1 |  | 
COc1ccc(CNC(C)(C)CNc2ccnc3cc(Cl)ccc23)cc1.Cl.Cl [Example 35, N1-(7-Chloro-quinolin-4-yl)-N2-(4-methoxy-benzyl)-2-methyl-propane-1,2-diamine dihydrochloride] | 0.0064 | 0.0133 | 2.1 |  | 
COc1cccc(CNC(C)(C)CNc2ccnc3cc(Cl)ccc23)c1OC.Cl.Cl [Example 36, N1-(7-Chloro-quinolin-4-yl)-N2-(2,3-dimethoxy-benzyl)-2-methyl-propane-1,2-diamine dihydrochloride] | 0.0162 | 0.0207 | 1.3 |  | 
COc1ccc(CNC(C)(C)CNc2ccnc3cc(Cl)ccc23)c(OC)c1.Cl.Cl [Example 37, N1-(7-Chloro-quinolin-4-yl)-N2-(2,4-dimethoxy-benzyl)-2-methyl-propane-1,2-diamine dihydrochloride] | 0.011 | 0.011 | 1.0 |  | 
COc1ccc(OC)c(CNC(C)(C)CNc2ccnc3cc(Cl)ccc23)c1.Cl.Cl [Example 38, N1-(7-Chloro-quinolin-4-yl)-N2-(2,5-dimethoxy-benzyl)-2-methyl-propane-1,2-diamine dihydrochloride] | 0.0101 | 0.0151 | 1.5 |  | 
COc1ccc(CNC(C)(C)CNc2ccnc3cc(Cl)ccc23)cc1OC.Cl.Cl [Example 39, N1-(7-Chloro-quinolin-4-yl)-N2-(3,4-dimethoxy-benzyl)-2-methyl-propane-1,2-diamine dihydrochloride] | 0.0078 | 0.0103 | 1.3 |  | 
COc1cc(CNC(C)(C)CNc2ccnc3cc(Cl)ccc23)cc(OC)c1OC.Cl.Cl [Example 41, N1-(7-Chloro-quinolin-4-yl)-N2-(3,4,5-trimethoxy-benzyl)-2-methyl-propane-1,2-diamine dihydrochloride] | 0.0135 | 0.0187 | 1.4 |  | 
CC(C)(CNc1ccnc2cc(Cl)ccc12)NCc1ccc2c(c1)OCO2.Cl.Cl [Example 42, N1-(7-Chloro-quinolin-4-yl)-N2-benzo[1,3]dioxol-5-ylmethyl-2-methyl-propane-1,2-diamine dihydrochloride] | 0.0087 | 0.0126 | 1.4 |  | 
CC(C)(CNc1ccnc2cc(Cl)ccc12)NCc1cccc2ccccc12.Cl.Cl [Example 52, N1-(7-Chloro-quinolin-4-yl)-N2-(naphthalen-1-yl-methyl)-2-methyl-propane-1,2-diamine dihydrochloride] | 0.0346 | 0.0556 | 1.6 |  | 
CC(C)(CNc1ccnc2cc(Cl)ccc12)NCc1ccc2ccccc2c1.Cl.Cl [Example 53, N1-(7-Chloro-quinolin-4-yl)-N2-(naphthalen-2-yl-methyl)-2-methyl-propane-1,2-diamine dihydrochloride] | 0.0159 | 0.0149 | 0.9 |  | 
CC(C)(CNc1ccnc2cc(Cl)ccc12)NCc1ccco1.Cl.Cl [Example 54, N1-(7-Chloro-quinolin-4-yl)-N2-(furan-2-yl-methyl)-2-methyl-propane-1,2-diamine dihydrochloride] | 0.0193 | 0.029 | 1.5 |  | 
CC(C)(CNc1ccnc2cc(Cl)ccc12)NCc1ccoc1.Cl.Cl [Example 55, N1-(7-Chloro-quinolin-4-yl)-N2-(furan-3-yl-methyl)-2-methyl-propane-1,2-diamine dihydrochloride] | 0.0078 | 0.0145 | 1.9 |  | 
CC(C)(CNc1ccnc2cc(Cl)ccc12)NCc1ccc(C(F)(F)F)cc1C(F)(F)F.Cl.Cl [Example 59, N1-(7-Chloro-quinolin-4-yl)-N2-(2,4-bis-trifluoromethyl-benzyl)-2-methyl-propane-1,2-diamine dihydrochloride] | 0.166 | 0.186 | 1.1 |  | 
COc1cc(CN[C@H]2CCCC[C@@H]2Nc2ccnc3cc(Cl)ccc23)cc(OC)c1OC.Cl.Cl [Example 65, (1S,2S)-N1-(7-Chloro-quinolin-4-yl)-N2-(3,4,5-trimethoxy-benzyl)-cyclohexane-1,2-diamine dihydrochloride] | 0.0099 | 0.0253 | 2.6 |  | 
Oc1ccccc1CN[C@H]1CC[C@@H](Nc2ccnc3cc(Cl)ccc23)CC1 [Example 78, cis-N1-(7-Chloro-quinolin-4-yl)-N4-(2-hydroxy-benzyl)-cyclohexane-1,4-diamine dihydrochloride] |  |  |  | 99.9 | 100
